Measurements from US11136315B2, “CXCR2 antagonist” (MEDSHINE DISCOVERY INC., priority 2018, dated 2021).

Legend:
PPE-induced COPD model = assay: Therapeutic effect on PPE-induced COPD model, flow cytometry of inflammatory cells; type: in vivo, C57BL/6 mice; conditions: PPE-induced mouse COPD model, daily gavage 4 weeks, high dose (120 mpk)
Method: The therapeutic effect of the compounds on PPE-induced COPD model in C57BL/6 mice was tested. Animals: C57BL/6 mice (female, 17.5-18.5 g, 6-8 weeks old) Drugs: Porcine pancreas elastase (PPE) (sigma, 0.068 U/μL); compound 1 in FIG. 1, FIG. 2 and FIG. 3 is danirixin; compound 2 is WX006A. Grouping: (1) COPD model group (porcine pancreatic elastase model group) • (2) PPE+ danirixin (40 mpk) • (3) PPE+ danirixin (120 mpk) • (4) PPE+WX006A (4 mpk) • (5) PPE+WX006A (12 mpk) 1. Modeling method: PPE was administered through by drip transfusion at the back of the tongue. 2. Administration method: an aqueous solution of 1% DMSO/1% hydroxypropyl methylcellulose/0.2% Tween 80 was used as the vehicle; the animals were daily administered with a volume of 200 μL/animal by gavage for 4 weeks. 3. End point of the experiment: On the 29th day, the mice were euthanized, samples were collected, and flow cytometry was performed. The blood, alveolar lavage fluid and lung tissue of the mice were collected after 4 weeks of administration to determine the percentage of inflammatory cells. 1) Alveolar lavage cells: the mice were euthanized. […] 3) The cells were counted and the cell suspensions were transferred into flow cytometry tubes. […] 5) After washing the cells, the percentage of neutrophils and monocytes in CD45^+ cells was determined using a flow cytometer.

[1] = Pharmacokinetic evaluation in C57BL/6 mice; type: in vivo; conditions: male, mouse, plasma
Method: The pharmacokinetic parameters of the compounds in C57BL/6 mice were investigated.
C57BL/6 mice (male, 18-30 g, 7-9 weeks old, Shanghai Lingchang Biotechnology Co., Ltd.)
Formulations containing an aqueous solution of 1% DMSO/10% hydroxypropyl-β-cyclodextrin as the vehicle were administered by intravenous injection (1 mpk), formulations containing an aqueous solution of 1% DMSO/1% hydroxypropyl methylcellulose/0.2% Tween 80 as the vehicle were administered by gavage (5 mpk). Before the animal experiment, all animals were fasted, and fed 4 hours after administration; all animals were free to drink water. The time points of blood collection: intravenous injection administration group: 0.083, 0.25, 0.5, 1, 2, 4, 6, 8 and 24 hours; gavage administration group: 0.25, 0.5, 1, 2, 4, 6, 8 and 24 hours.
(§1) Whole blood samples (0.03 mL) were collected through the saphenous vein (or other suitable blood collection sites) at the prescribed time points, and all blood samples were added to labeled plastic centrifuge tubes containing K2-EDTA anticoagulant. After the blood samples were collected, the plasma was isolated by centrifugation, immediately placed in dry ice and stored at low temperature. All samples were analyzed by LC-MS/MS with a minimum detection limit of 2 nM. The non-compartmental model of WinNonlin™ Version 6.3 (Pharsight, Mountain View, Calif.) pharmacokinetic software was used to process the mean plasma concentration, and the linear-log trapezoid method was used to calculate the pharmacokinetic parameters.

[2] = Pharmacokinetic and tissue distribution in Lewis rats; type: in vivo; conditions: male, rat, lung / plasma, oral, 5 mg/kg, gavage 5 mpk, read-out: Ratio in lung blood
Method: The pharmacokinetic and tissue distribution of the compounds in Lewis rats was tested.
Lewis rats (male, 202-239 g, 7-9 weeks old, Beijing Viton Lihua)
Formulations containing an aqueous solution of 1% hydroxypropyl methylcellulose/0.2% Tween 80 as the vehicle were administered by gavage (5 mpk). Before the animal experiment, all animals were fasted overnight, and fed 4 hours after administration; all animals were free to drink water. The time points of blood collection: danirixin administration group: 0.25, 1, 8 hours; gavage administration group: 0.5, 1, 4 hours.
as §1, with “(0.2” for “(0.03”, “separated” for “isolated”, “log-linear” for “linear-log”

Cc1c(F)cccc1NC(=O)Nc1ccc(Cl)c(S(=O)(=O)[C@H]2CCCNC2)c1O [Danirixin, danirixin, reference compound]
proportion of monocytes in the alveolar lavage fluid (PPE-induced COPD model): significant effect of reducing
proportion of neutrophils in the alveolar lavage fluid (PPE-induced COPD model): significant effect of reducing
clearance ([1]; intravenous 1 mpk / gavage 5 mpk study): 42.5 mL/min/kg
half-life ([1]; intravenous 1 mpk / gavage 5 mpk study, read-out: Half-life T1/2 (converted)): 7.43 h
AUC ([1]; intravenous 1 mpk / gavage 5 mpk study, route not stated, unit printed shifted under first column, read-out: Area under the drug concentration time curve (AUC)): 1.58 µM·h
bioavailability ([1]; po, 5 mg/kg, gavage 5 mpk vs intravenous 1 mpk, read-out: Bioavailability (F)): 34.3%
Kp [2]: 1.57
